Measured values as given in patent US20150133341A1, “Intra-Operative Cancer Diagnosis Based on a Hyperpolarized Marker” (ALBEDA INNOVATIONS APS, priority 2012, published 2015).
Marks after values point to notes of the source that are not given here.

How the values were obtained:
[1] = test system: human breast cancer cells (MCF-7); assay: Metabolism of hyperpolarized substrates in intact human breast cancer cells; type: cell-based; details: for Metabolic conversion (a.u.) MCF-7 cells: 20 million cells, maximum signal of product 1-13C lactate; for conversion in breast cancer cells over lymphocytes: quantified by cell number
Protocol: (§1) Human breast cancer cells (MCF-7) and human prostate cancer cells (PC-3) were grown in RPMI medium with 10% FBS and antibiotics. The cells were at confluence harvested by trypsination and washed once with 5 ml PBS. They were spun down and re-dissolved to a concentration of 20 million cells in 500 μl 40 mM phosphate buffer pH 7.3.
(§2) The cell suspensions were transferred to a 10 mm NMR tube and placed with connecting tubing in a 14.1 T magnet at 37 C.
(§3) Finland radical, carboxylic acid form (1 mg, 0.65 μmol) was dissolved in 1,3-^13C2 ethyl acetoacetate (50 μl, 51 mg, […]). To the solution was added a DMSO solution of the gadolinium complex ([alfa1,alfa4,alfa7-tris[(phenylmethoxy)methyl]-1,4,7,10-tetraazacyclododecane-1,4,7,10-tetraacetato(4-)]gadolinate(1-)]hydrogen) (0.8 mg of a 100 μmol/g solution). The concentration of radical and gadolinium were 13 mM and 1.6 mM respectively. 20 μmol of this composition was hyperpolarised under DNP conditions at 1.2 K in a 3.35 T magnetic field under irradiation with microwave (93.900 GHz). The polarization build-up constant was 750 s. The solid-state polarization was approx. 20%.
(§4) The hyperpolarized sample was dissolved in 5 ml phosphate buffer (40 mM, pH 7.3). The pH after dissolution was 7.3. Following dissolution, 1 ml of the substrate mixture was injected into 20 million cells in suspension. A series of 20 degree pulses every 2 s (56 scans in total) was acquired. The acquisition was started just before injection of the hyperpolarized substrate. Data are presented metabolic signal build-up as a function of time and as maximum metabolite signal.
(§5) The cells were grown and harvested or purified as described in example 3.10. The experiments were performed with single substrates administered to 20 million MCF-7 cells, PC-3 cells or lymphocytes dissolved in a volume of 500 μl 40 mM phosphate buffer pH 7.3. The cell suspensions were transferred to a 10 mm NMR tube and placed with connecting tubing in a 14.1 T magnet at 37° C.
^13C6-d7-glucose (22.8 mg, 0.118 mmol) was dissolved in polarization medium (25.0 mg). The polarization medium was made of Ox063 radical (19.1 mg, 13.3 μmol) was dissolved in 465 μl water. To this solution was added Gadoteridol (40 mg of 50 μmol/g solution in water). Concentrations: [Ox063]=26.5 mM, [Gd]=4 mM. The total weight of the glucose preparation was: 47.8 mg yielding 2.47 mmol glucose/g preparation.
1-^13C pyruvic acid (55 μl, 70.0 mg) was mixed with Finland radical, sodium salt (1.5 mg, 0.94 μmol) and Gadoteridol (2.1 mg of 50 μmol/g solution in water). Concentrations of radical and Gadolinium were: 17 mM; 2 mM.
20 μmol of either substrate was polarized in a 3.3 T polarizer operating at […] and approx. 1.2 K. Following 45 minutes polarization the samples were dissolved in 5 ml 40 mM phosphate buffer pH 7.3. In the experiments with pyruvic acid an equimolar addition of NaOH was added to neutralize the acid. 2 ml of the dissolved substrate mixture was injected into the cells in suspension. A series of 20 degree pulses every 2 s (56 scans in total) was acquired. The acquisition was started just before injection of the hyperpolarized substrate. Data are presented as maximum metabolite signals, hyperpolarized 1-^13C lactate produced from either glucose or pyruvate.

[2] = test system: human prostate cancer cells (PC-3); assay: Metabolism of hyperpolarized substrates in intact human prostate cancer cells; type: cell-based; details: for Metabolic conversion (a.u.) PC-3 cells: 20 million cells, maximum signal of product 1-13C lactate
Protocol: as §1, §2, §3, §4, §5
(§6) ^13C6-d7-glucose (22.8 mg, 0.118 mmol) was dissolved in polarization medium (25.0 mg). […]

[3] = test system: human lymphocytes; assay: Metabolism of hyperpolarized substrates in intact human lymphocytes; type: cell-based; details: for Metabolic conversion (a.u.) Lymphocytes: 20 million cells, maximum signal of product 1-13C lactate
Protocol: Human lymphocytes were purified from whole blood. Whole blood samples were drawn from a healthy volunteer into heparinised venous blood collection tubes (Venosafe vacumtubes from Terumo). For each experiment the blood was purified freshly: Three and a half 10 mL tubes of blood were pooled in each of four 50 mL Leucosep (Greiner) tubes prepared with 15 mL Histopaque 1077 (Sigma). The Leucosep tubes were spun for 15 min at 800× g at 24 C. The plasma was removed and the white blood cells were transferred to a 50 mL falcon tube by decanting and diluted 1:2 in PBS-Mg—Ca for a total volume of 50 mL. The cells were sedimented by centrifugation at 250×g for 60 min. Diluting with trypan blue and counting in hemocytometer determined the total number of lymphocytes before sedimentation. All cells were viable and the total number of cells in each cell batch was approx. 60 million. The lymphocytes were redissolved to a concentration of 20 million cells in 500 μl 40 mM phosphate buffer pH 7.3.
as §2, §3, §4, §5, §6

[4] = test system: breast cancer cells (MCF-7) in the background of human lymphocytes; assay: Co-polarized substrates in model voxels of breast cancer cells in lymphocyte background; type: cell-based; details: for Metabolic conversion (a.u) 50% cancer cells: 1 million MCF-7 cells and 20 million lymphocytes; for Metabolic conversion (a.u) 100% cancer cells: 2 million MCF-7 cells, 2x2x2 voxel model; for Metabolic conversion (a.u) 0% cancer cells: 40 million lymphocytes
Excerpt: The real time metabolism of breast cancer cells was compared with the metabolism of the lymph node background in model systems containing either only cancer cells (100% cancer), only lymphocytes (0% cancer) or a combination of the two cell types (50% cancer) in cellular concentrations expected to be present in a spatially resolved lymph node containing a macro metastasis. In the clinic, the interest is focused on macro metastasis since these are statistically those, which indicate aggressive cancers (P. Blumencranz, Surg Oncol Clin N Am 20 (2011) 467-485).
The model system was designed assuming a macro metastasis, which is defined to have a minimum diameter of 2 mm (P J. Diest et al., (2010) Breast disease 31: 65-81). In a 2×2×2 mm voxel, 50% of the volume will be cancer cells assuming that the macro metastasis is shaped as a sphere. Three experimental systems were established and carried out: 1) 2 million MCF-7 cells (corresponding to 100% cancer cells in a 2×2×2 voxel), 2) 1 million MCF-7 cells and 20 million lymphocytes (corresponding to 50% cancer cells in a 2×2×2 voxel) and 3) 40 million lymphocytes (corresponding to 0% cancer cells in a 2×2×2 voxel). The cells were grown and harvested or purified as described in example 3.10. The DNP preparations of 1-^13C-pyruvate and 1,3-^13C2-ethyl acetoacetate were made as described in examples 3.10. and 3.11. The substrates (20 μmol each) were co-polarized. The polarization, dissolution and administration to the cells were made as in example 3.11.

[5] = test system: breast cancer cells (MDA-MB-231); assay: In cell 13C-NMR detection of 1,4-13C2-malate using 1,4-13C2-fumarate as hyperpolarized marker; type: cell-based, human; details: 5 million cells; 30 s; normalized to soluble protein; vs 184B5; FIG. 2
Protocol: Step 1: 1,4-^13C2 Fumaric acid (274 mg, 2.32 mmol) was dissolved in a DMSO solution (1660 μl) of trityl radical (Tris(8-carboxy-2,2,6,6-(tetra(methoxyethyl)-benzo-[1,2-4,5′]-bis-(1,3)-dithiole-4-yl)-methyl sodium salt) (19 mM) and gadolinium trimeric complex (Gadolinium chelate of 1,3,5-tris-(N-(DO3A-acetmido)-N-methyl-4-amino-2-methylphenyl)-[1,3,5]triazinane-2,4,6-trione)) (0.8 mM). A sample of this solution (32.5 mg) was hyperpolarized for 60 minutes, at 93.900 GHz and 1.3 K. The sample was dissolved in phosphate buffer (4 ml, pH 7.3, 40 mM) with addition of sodium hydroxide (22 μl, 12M) to neutralize the acid in the hyperpolarized sample.
Step 2: 100 μl of hyperpolarized sodium 1,4-^13C2-fumarate from step 1 was mixed into 500 μl RPMI medium containing 5 million breast cancer cells (MDA-MB-231, human epithelial breast cancer cell line) in a 5 mm NMR tube and placed in a 9.4 T NMR magnet. Signals of 1,4-^13C-malate were detected by acquiring a set of ^13C-MR spectra every 2 s with a 15 degree RF pulse. The amount of 1,4-^13C-malate was calculated 30 s after mixing the hyperpolarized sodium 1,4-^13C2-fumarate into the medium containing cells. Further, the amount of soluble protein in the MDA-MB-231 cells was determined, and the amount of 1,4-^13C-malate was normalized to the protein amount. […]

[6] = test system: prostate cancer cells (PC-3); assay: In cell 13C-NMR detection of 1-13C-lactate using 1-13C-pyruvate as hyperpolarized marker; type: cell-based, human; details: 5 million cells; PC-3 vs PNT-1A; FIG. 1
Protocol: Step 1: 1-^13C pyruvic acid (1286 mg, 14.4 mmol) was mixed with 25 mg of trityl radical (Tris(8-carboxy-2,2,6,6-(tetra(methoxyethyl)-benzo-[1,2-4,5′]-bis-(1,3)-dithiole-4-yl)-methyl sodium salt) (15 mM) and gadolinium trimeric complex (Gadolinium chelate of 1,3,5-tris-(N-(DO3A-acetmido)-N-methyl-4-amino-2-methylphenyl)-[1,3,5]triazinane-2,4,6-trione)) (0.6 mM). A sample of this solution (9.2 mg) was hyperpolarized for 60 minutes, at 93.900 GHz and 1.3 K. The sample was dissolved in phosphate buffer (4 ml, pH 7.3, 40 mM) with addition of sodium hydroxide (11 μl, 12M) to neutralize the acid in the hyperpolarized sample. The hyperpolarized solution was further diluted with tempered (37° C.) buffer to 30 ml.
Step 2: 500 μl of hyperpolarized sodium 1-^13C-pyruvate from step 1 was mixed into 5 million prostate cancer cells (PC-3, human prostate cell adenocarcinoma) in a 10 mm NMR tube and placed in a 9.4 T NMR magnet. Signals of 1-^13C-pyruvate and 1-^13C-lactate were detected by acquiring a set of ^13C-MR spectra every 3 s with a 15 degree RF pulse and the signal from 1-^13C-lactate was quantified.
Using an identical protocol as outlined above, a second study was performed in healthy prostate cells (PNT-1A, immortalized healthy prostate cells).

Structure (SMILES) | hydrolysis to 1,3-13C2 acetoacetate ([1]; 20 million intact MCF-7 cells, FIG. 4) | hydrolysis to 1,3-13C2 acetoacetate ([2]; 20 million intact PC-3 cells, FIG. 4) | hydrolysis to 1,3-13C2 acetoacetate ([3]; 20 million intact lymphocytes, FIG. 4) | metabolic conversion, healthy lymphocytes over cancer cells ([3]; cancer cells quantified by limit-of-detection) | Metabolic conversion (a.u) 50% cancer cells [4] | Metabolic conversion (a.u) 100% cancer cells [4] | Metabolic conversion (a.u) 0% cancer cells [4] | concentration of 1,4-13C-malate in MDA-MB-231 cells compared to healthy breast cells [5] | 1-13C-lactate signal in PC-3 cells compared to non-cancerous prostate cells [6] | Metabolic conversion (a.u.) MCF-7 cells [1] | conversion in breast cancer cells over lymphocytes [1] | Metabolic conversion (a.u.) PC-3 cells [2] | Metabolic conversion (a.u.) Lymphocytes [3]
CCO[13C](=O)C[13C](C)=O [1,3-^13C2 ethyl acetoacetate] | no conversion can be detected | no conversion can be detected | hydrolysed | approx. 33 times | 632 a.u. | < 14* a.u. | 1027 a.u. | – | – | – | – | – | –
O=[13C](O)/C=C/[13C](=O)O [1,4-^13C2-fumarate] | – | – | – | – | – | – | – | significantly higher | – | – | – | – | –
CC(=O)[13C](=O)O [1-^13C-pyruvate] | – | – | – | – | 1853 a.u. | 337 a.u. | 2620 a.u. | – | increased | 1000 a.u. | 50 times | 200 a.u. | 40 a.u.
OC[C@H]1OC(O)[C@H](O)[C@@H](O)[C@@H]1O (some centres unmarked) [^13C6-d7-glucose] | – | – | – | – | – | – | – | – | – | 500 a.u. | 50 times | 200 a.u. | 10 a.u.
